# From PubChem BioAssay AID179 (DTP/NCI, 2004)
# Values joined by “and” are separate entries in the source; they are usually repeats but may differ in a detail not shown here. Equal entries are not always repeated. Active and inactive are the calls of the source.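 The calls were made as follows: active = compounds giving half or more protection of infected cells from virus-caused growth loss, again on retest; inactive = the rest.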
# System: CEM cells HIV-1 protection, formazan growth assay
# Assay: NCI AIDS Antiviral Assay
# Conditions: for IC50: measured here: growth of uninfected CEM cells
# Outline: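 Screen of anti-HIV-1 activity in human CEM cells using a formazan-based growth measurement at five drug concentrations. Hits with 50% or greater protection were repeated, and confirmation required reproducible complete protection.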
Structure (SMILES),EC50,IC50,outcome
O=C(/C=C/c1ccc(Cl)cc1)c1cccs1,> 200 µM,1.23 µM,
Cn1c(N)c(/C=C/C(=O)Oc2ccccc2)c(=O)n(C)c1=O,,,inactive
CN(C)P1(=O)N(c2ccccc2)P(=O)(N(C)C)N1c1ccccc1 (stereo not given),> 224 µM,> 224 µM,
Cc1ccc(NC(=O)C(=O)C2C(=O)C3=C(CC2(C)C)NC2C=CC=CC2S3)c(C)c1 (stereo not given),> 117 µM,> 117 µM,
CC1(O)Oc2ccc3ccccc3c2C=C1C(N)=O (stereo not given),> 200 µM,182 µM,
CC1=CC(O)C(C(O)(C(F)(F)F)C(F)(F)F)C(C)(C)C1 (stereo not given),> 200 µM,178 µM,
NCCCCCS(=O)(=O)O,> 9330 µM,> 9330 µM,
CC1=C(C(=O)NCc2ccccc2)C(c2ccc([N+](=O)[O-])cc2)C(C(=O)NCc2ccccc2)=C(C)N1,> 14.5 µM,> 14.5 µM,
CCc1ccccc1NC(=O)C(=O)C(C(=O)c1ccc(OC)cc1)c1ccc(OC)cc1 (stereo not given),,,inactive
CC1CN=C(NCc2ccccc2)S1 (stereo not given),> 200 µM,> 200 µM,
CCCCN(C=O)CCc1ccccc1,> 1230 µM,> 1230 µM,
Clc1c2ccccc2nc2c1[nH]c1ccccc12,> 200 µM,11.2 µM,
O=C1/C(=N\S(=O)(=O)c2ccccc2)C([n+]2ccc(Cc3ccccc3)cc2)=C([O-])c2ccccc21,> 200 µM,2.63 µM,
COc1ccc2cc(C(C)C(O)c3cc(F)c(F)c(F)c3F)ccc2c1 (stereo not given),126 µM,> 200 µM,
OC1(c2ccc(Cl)cc2)c2ccccc2C2=NCc3ccccc3CN21 (stereo not given),> 200 µM,33.1 µM,
Cc1ccc2c(n1)C(N1CCOCC1)=CC(=O)C2=O,,,inactive
C/C1=C\CC[C@@]2(C)O[C@@H]2[C@H]2OC(=O)C(C)C2C[C@H]1O (stereo not given in full),> 200 µM,> 200 µM,
CCC1(c2ccccc2)OCC(=O)NC1=O (stereo not given),> 200 µM,> 200 µM,
C[n+]1c(-c2ccc(/C=N/NC(=O)c3ccc(C(=O)N/N=C/c4ccc(-c5cn6ccccc6[n+]5C)cc4)cc3)cc2)cn2ccccc21,> 3.89 µM,0.0224 µM,
S=C(Nc1ccccc1)Nc1ccccc1SC(/C=C/NNC1=NC(c2ccccc2)C(c2ccccc2)=NN1)c1ccccc1 (stereo not given),> 15.5 µM,> 15.5 µM,
CCOC(=O)C1C[C@H]2CO[C@H](c3ccccc3)N2C1=O (stereo not given in full),> 200 µM,> 200 µM,
COc1ccc(C2=C(C#N)C(=O)OCCN2C)cc1,> 200 µM,> 200 µM,
O=C(CC1C(=O)Nc2ccccc2S1=O)Nc1ccc(Cl)cc1 (stereo not given),,,inactive

Structure (SMILES),EC50,IC50,outcome
c1ccc(C2=C(c3ccccc3)CSSC2)cc1,> 69.2 µM,> 69.2 µM,
Cc1[nH]n(-c2ccccc2)c(=O)c1C=NC(=S)C(N)=S,> 200 µM,56.2 µM,
CN(C(=O)C1=CCCCCC1)c1ccccc1I,> 200 µM,38.9 µM,
O=C1C(=O)c2ccccc2C(O)=C1C1CCCCC1,> 263 µM,40.7 µM,
COc1ccc(OC)c(/C=C/C(=O)C(C)(C)C)c1,> 105 µM,19.1 µM,
O=C(O)c1ccccc1/C=C1\Cc2ccc3c(c2C1=O)CCCC3,> 200 µM,41.7 µM,
C=CC[P+](c1ccccc1)(c1ccccc1)c1ccccc1,> 20 µM,0.562 µM and 0.427 µM,
CN1CCC[C@H]1C(=O)c1oc(CO)cc(=O)c1O,,,inactive
NC(=O)c1nnc2c(F)cccc2c1N,> 200 µM,182 µM,
CC1(C)COC2=C(C1)C(=O)c1ccccc1C2=O,> 200 µM,0.708 µM,
CC(=O)N/N=C(\C=C\c1ccccc1)c1ccccc1OC(C)=O,> 200 µM,107 µM,
O=P1(O)c2ccccc2CCc2ccccc21,> 200 µM,> 200 µM,
CC[n+]1[b-](C(C)(C)C)n(/N=C(\C)C(C)(C)C)[b-](C(C)(C)C)[n+]1CC,> 200 µM,31.6 µM,
C=CCN=C1NC(=O)C(CC(=O)Nc2cccc(Cl)c2)S1 (stereo not given),> 288 µM,> 288 µM,
CCN(CC)C(=O)c1cccc2c(OC)ccc(OC)c12,,,inactive
O=C(NC(=O)c1cc(-c2ccccc2)n[nH]1)c1ccccc1,> 200 µM,123 µM,
COc1ccc(C23OCCN2C(=O)c2ccccc23)cc1 (stereo not given),> 200 µM,19.1 µM,
O=c1[nH]c2cn(-c3ccccc3)nc2c(=O)n1O,> 200 µM,3.55 µM,
O=C(O)c1cnnc2ccccc12,> 1450 µM,> 1450 µM,
NC(=O)c1cccc(NC=O)c1,> 1510 µM,1290 µM,
O=[N+]([O-])c1ccc(S(=O)(=O)N/N=C/c2ccco2)cc1,> 316 µM,166 µM,
COC(=O)/C(C#N)=C1\NC(=O)c2ccccc21,> 83.2 µM,> 83.2 µM,
O=C1c2c(O)cccc2[C@H](O)[C@]23O[C@]12CC[C@]1(O)CCC[C@@H](O)[C@@H]13,> 20 µM,0.977 µM,

Structure (SMILES),EC50,IC50,outcome
CCCC1(c2ccccc2)Oc2ccccc2-n2cccc2C1=O (stereo not given),> 200 µM,40.7 µM,
CC1=C/C(=C(\c2cc(C)c(O)c(C(=O)O)c2)c2c(Cl)cccc2Cl)C=C(C(=O)O)C1=O,,,inactive
COC1=CC2(OC)CCC1C1=C2C(=O)c2c(O)cccc2C1=O (stereo not given),,,inactive
O=S(=O)(O)c1ccc(N=Nc2ccc(N=Nc3cccc4ccccc34)c(S(=O)(=O)O)c2)cc1,> 50.1 µM,> 50.1 µM,
CN(C)Cc1c[nH]c2nc[nH]c(=O)c12,> 200 µM,25.7 µM,
COc1cccc(SSc2cccc(OC)c2OC)c1OC,> 200 µM,16.6 µM,
Cc1ccccc1C(C#N)C(=O)C(=O)Nc1cccc(Cl)c1 (stereo not given),> 417 µM,> 417 µM,
CCSc1cc(C(=O)OC)c2n(c1=O)CCCC2,> 200 µM,> 200 µM,
C[C@@H]1CC(O)C2(O)C13CC(OC(=O)[C@@H]3O)C1(O)C(=O)OCC12C (stereo not given in full),> 759 µM,> 759 µM,
COC(=O)C(C(=O)C(=O)Nc1ccc(C)cc1)c1nc2ccc([N+](=O)[O-])cc2[nH]c1=O (stereo not given),> 44.7 µM,> 44.7 µM,
COC(=O)[C@@H](CO)NC(=O)OC(C)(C)C,> 200 µM,> 200 µM,
C(=C\c1c[nH]c2ccccc12)/c1ccc2ccccc2n1,0.0631 µM,16.6 µM,
N#Cc1ccc(Sc2nc3ccccc3[nH]2)cc1,,,inactive
OC(C#CCN1CCCC1)(c1ccccc1)c1ccccc1.[C-]#[O+].[C-]#[O+].[C-]#[O+].[C-]#[O+].[C-]#[O+].[C-]#[O+].[Co].[Co],> 200 µM,7.41 µM,
N#CCC(=O)N/N=C1/C(=O)N(c2cc(Cl)ccc2Cl)C(=O)C(=O)C1c1nc2ccccc2s1 (stereo not given),,,inactive
Nc1ncnc2c1ncn2C1CC(O)C(CO)O1 (stereo not given),> 1000 µM,186 µM,
NC(=S)Nc1[nH]c(=S)nc2[nH]ccc12,> 91.2 µM,83.2 µM,
Cc1nc2c(nc1C)C(=O)C(N1CCCCC1)=CC2=O,,,inactive
CCOC(=O)C1(C(=O)OCC)COC(=O)C1CN1Cc2cc3ccccc3nc2C1 (stereo not given),> 427 µM,47.9 µM,
O=S(=O)(Nc1cccc(F)c1)c1ccc(F)cc1,,,inactive
CSCCCNC(=O)c1csc(-c2csc(C(CNC(=O)OC(C)(C)C)CNC(=O)OC(C)(C)C)n2)n1,> 200 µM,22.4 µM,
Cn1cc(NC(=O)Nc2cc(C(=O)Nc3cc(C(=O)Nc4ccc(S(=O)(=O)O)c5cccc(S(=O)(=O)O)c45)n(C)c3)n(C)c2)cc1C(=O)Nc1cc(C(=O)Nc2ccc(S(=O)(=O)O)c3cccc(S(=O)(=O)O)c23)n(C)c1,,,inactive
CCOC(=O)C(NC(=O)c1ccccc1)(Nc1ccc(S(=O)(=O)Nc2ncccn2)cc1)C(F)(F)F (stereo not given),> 200 µM,> 200 µM,

Structure (SMILES),EC50,IC50,outcome
CN(C)CCOC1(Cc2ccc(F)cc2)CCC(C(C)(C)C)CC1 (stereo not given),> 200 µM,3.89 µM and 3.98 µM,
CCN(CC)c1ccc2c(c1)Oc1ccc(N(CC)CC)cc1C21Oc2ccccc2-c2c1c1ccccc1n2CC (stereo not given),,,inactive
O/N=C1\CCc2cc3c(cc21)CCC3,> 200 µM,155 µM,
CC(=O)Nc1ccc(S2=Nc3ccccc3S2)cc1 (stereo not given),> 49 µM,16.2 µM,
CCCCCCCC[N+](C)(C)Cc1ccc(C[N+](C)(C)CCCCCCCC)cc1,,,inactive
O=C(O)c1cc(N=C=S)ccc1-c1c2ccc(=O)cc-2oc2cc(O)ccc12,43.7 µM and 44.7 µM,316 µM and > 100 µM,
CC1=C(C)C(=O)C(C2=CC(=O)c3ccccc3C2=O)=C(C2=CC(=O)c3ccccc3C2=O)C1=O,> 200 µM,3.39 µM,
CC(C)=CCC12Cc3ccc(O)cc3C(C(C)CN1)C2C (stereo not given),> 200 µM,> 200 µM,
COC(=O)/N=[N+](\[O-])C(c1ccc(OC)cc1)C1CCCCC1 (stereo not given),> 200 µM,5.62 µM,
COc1ccc2c(c1OC)C1=NCCc3c(OC)c(OC)c(OC)c-2c31,,,inactive
C1CCCCC2(CCCCCCCCC3(CCC1)OCCO3)OCCO2,> 200 µM,> 200 µM,
CC[C@H](OCc1ccccc1)/C(C)=C/CC(C)/C=C(/C[C@]1(C)OC(=O)N2CCC[C@H]21)[Si](C)(C)C (stereo not given in full),> 10.7 µM,> 10.7 µM,
NC1=NC(Cn2nc(-c3ccccc3)c3ccccc3c2=O)=NNC(=O)N1,> 20 µM,> 20 µM,
CCOC(=O)C(NC(=O)CC)(Nc1ccc(S(=O)(=O)Nc2ccc(OC)nn2)cc1)C(F)(F)F (stereo not given),> 200 µM,> 200 µM,
Cc1cn(C2CC(N=[N+]=[N-])C(CO)O2)c(=O)[nH]c1=O (stereo not given),0.0148 µM,0.316 µM,
CCC1(c2ccccc2)Sc2ccccc2-n2cccc2C1=O (stereo not given),18.2 µM,155 µM,
CC1=Nc2c(C#N)ncn2N=C(C)C1,> 200 µM,> 200 µM,
CCN1CCN(c2nc3ccccc3c3c2CCOc2ccccc2-3)CC1,,,inactive
CSc1nc(C#N)c(/N=C\N(C)C)n1C,> 200 µM,> 200 µM,
Cc1c(N2CCN(C)CC2)nc2ccc(Cl)cc2c1-c1ccccc1,> 14.8 µM,> 14.8 µM,
Cc1cccc(NC(=S)NNC(=O)c2cc(-c3ccccc3)nc3ccccc23)c1,> 200 µM,24 µM,
[N-]=[N+]=C(C(=O)CN1CCCC1=O)S(=O)(=O)c1ccccc1,> 813 µM,437 µM,
